Data as given in paper PMC11990524, “Design and Synthesis of Novel 6-(Substituted phenyl)-[1,3]dioxolo[4′,5′:4,5]benzo[1,2-d]thiazole Compounds as Tyrosinase Inhibitors: In Vitro and In Vivo Insights” (Molecules, 2025).

Legend:
HaCaT cells = experiment: Cytotoxicity assay on HaCaT cells (EZ-Cytox); type: cell-based, human; details: 1, 2, 5, 10, and 20 μM, 24 h
Protocol: In addition to melanocytes, keratinocytes are the primary cells present in the epidermis. […] Each compound was treated at concentrations of 0, 1, 2, 5, 10, and 20 μM for 24 h, and cell viability was measured using the EZ-Cytox solution.
The effect of compounds 5 and 9 on cell viability of HaCaT and B16F10 cells was assessed using an EZ-Cytox solution (EZ-1000®, DoGenBio, Seoul, Republic of Korea). HaCaT (5 × 10^3 cells/well) and B16F10 (1 × 10^3 cells/well) cells were seeded in a 96-well plate, respectively, and cultured for 24 h under the same conditions as the cell culture. Each well was treated with 5 and 9 at 0, 1, 2, and 5 μM for B16F10 cells and 0, 1, 2, 5, 10, and 20 μM for HaCaT cells. The plates were incubated for 72 h for B16F10 cells and 24 h for HaCaT cells under a CO2 incubator. Each well was treated with the EZ-Cytox solution (10 μL), and the plate was left for 2 h under a CO2 incubator. Well optical density was measured at 450 nm to determine cytotoxicity.

B16F10 cell tyrosinase = biological target: T1, B16F10 cell tyrosinase (Mus musculus, UniProt P11344); experiment: In situ cellular tyrosinase activity assay using B16F10 cells; type: cell-based, murine
T1 construct: endogenous in cells; host or cells: B16F10 murine cells, stimulated with α-MSH and IBMX
T1 sequence (P11344 19-533): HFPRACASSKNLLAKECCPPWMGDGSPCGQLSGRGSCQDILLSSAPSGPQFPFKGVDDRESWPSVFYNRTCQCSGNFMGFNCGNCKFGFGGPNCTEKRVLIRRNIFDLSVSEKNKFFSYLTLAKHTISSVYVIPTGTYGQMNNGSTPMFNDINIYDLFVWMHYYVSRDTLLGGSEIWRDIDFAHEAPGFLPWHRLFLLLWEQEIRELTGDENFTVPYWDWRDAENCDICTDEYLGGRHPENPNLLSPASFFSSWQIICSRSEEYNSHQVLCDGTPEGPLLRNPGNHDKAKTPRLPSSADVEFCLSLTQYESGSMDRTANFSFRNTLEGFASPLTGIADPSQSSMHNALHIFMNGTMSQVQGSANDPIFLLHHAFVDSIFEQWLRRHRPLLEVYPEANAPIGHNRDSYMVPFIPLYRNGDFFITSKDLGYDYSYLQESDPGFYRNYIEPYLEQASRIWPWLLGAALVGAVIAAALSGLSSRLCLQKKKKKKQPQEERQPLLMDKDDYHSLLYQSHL
Protocol: After 72 h of incubation, the cells were treated with an excessive amount of L-dopa for 2 h, and then the melanin-stained cells were photographed, and the pigmented areas of the cells were determined using an ATTO CS Analyzer (ATTO, Tokyo, Japan).
B16F10 (3 × 10^3 cells/well) cells in a 24-well plate were incubated for 24 h in a 5% CO2 incubator maintained at 37 °C. […] Stimulators (α-MSH and IBMX; 1 μM and 200 μM, respectively) were exposed to cells 1 h after treatment with the test sample, and the cells were incubated for 72 h in a 5% CO2 incubator. The cells were fixed for 40 min using paraformaldehyde solution (4%) (Sigma-Aldrich, St. Louis, MO, USA), washed with PBS (pH 7.4), and permeabilized for 2 min using Triton X-100 (0.1%). After washing twice with PBS, each well was exposed to L-dopa solution (500 μL; 2 mM). After incubation for 2 h, images of the cells stained with excess melanin were obtained using a camera connected to a microscope (Motic, Hong Kong).

[1] = biological target: T2, B16F10 cellular tyrosinase (Mus musculus, UniProt P11344); experiment: Cellular tyrosinase activity assay using B16F10 cells; type: cell-based, murine; details: 1, 2, and 5 μM, IBMX 200 μM plus α-MSH 1 μM, 72 h
T2 construct: endogenous in cells; host or cells: B16F10 murine cells, stimulated with α-MSH and IBMX
T2 sequence (P11344 19-533): T1 sequence (P11344 19-533)
Protocol: After 72 h of incubation, the B16F10 cellular tyrosinase inhibitory activity was evaluated by measuring the optical density at 475 nm.
To evaluate the effect of compounds 5 and 9 on cellular tyrosinase activity, B16F10 cells (5000 cells/well) were inoculated in a 6-well plate and cultured for 24 h under the same conditions as the cell culture. […] The plate was incubated in a 5% CO2 incubator maintained at 37 °C for 1 h. Each well was treated with stimulators (1 μM α-MSH [Alomone Labs^TM, Jerusalem, Israel] and 200 μM IBMX [Thermo Fisher, Rockford, IL, USA]) and incubated in a CO2 incubator for 72 h. The cells were rinsed twice with PBS (pH 7.4) and treated with 100 μL lysis buffer solution consisting of Triton X-100 (1%; 5 μL), phosphate buffer (50 mM; pH 6.5; 90 μL), and phenylmethanesulfonyl fluoride (2 mM; 5 μL). The lysates were placed for 30 min at −80 °C. After centrifuging at 10,000 g and 4 °C for 10 min, an aliquot (80 μL) of the supernatants was transferred to each well of a 96-well plate, and 20 μL of L-dopa solution (10 mM) was added to each well. The optical density at 475 nm was recorded every min for 10 min to determine cellular tyrosinase activity.

Oc1ccc(-c2nc3cc4c(cc3s2)OCO4)c(O)c1 [Compound 9, 4-([1,3]Dioxolo[4′,5′:4,5]benzo[1,2-d]thiazol-6-yl)benzene-1,3-diol]
cytotoxicity (cell viability) (HaCaT cells): None of the compounds revealed significant cytotoxicity up to 20 μM | melanin production-inhibitory potency in situ, comparison (B16F10 cell tyrosinase; 5 μM): greater than that of 5 | number of cells strongly stained with melanin (in situ tyrosinase) (B16F10 cell tyrosinase; 1, 2, and 5 μM, IBMX plus α-MSH, 72 h, L-dopa 2 h): evidently reduced the number of cells strongly stained with melanin | cellular tyrosinase activity [1]: significantly decreased the cellular tyrosinase activity
